From ChEMBL document CHEMBL1201862, “PubChem BioAssay data set” (2004)
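Five concentrations, 48 hours, 96-well plates. GI50 = concentration required for 50% inhibition of growth.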 Activity calls are given as the source filed them. No stated cut-off is given here; in the data, active = GI50 up to about 1.1 µM and inactive = higher.

Tests used:
Assay in all cases: DTP human tumour cell line panel, 48 h
[1] = system: SNB-75
[2] = system: A549
[3] = system: SK-MEL-28
[4] = system: NCI-H460
[5] = system: OVCAR-3
[6] = system: HT-29
[7] = system: SF-539
[8] = system: NCI-H23
[9] = system: HCT-15
[10] = system: SK-OV-3
[11] = system: SF-268
[12] = system: LOX IMVI
[13] = system: SF-295
[14] = system: NCI/ADR-RES
[15] = system: TK-10
[16] = system: OVCAR-4
[17] = system: CCRF-CEM
[18] = system: HOP-92
[19] = system: 786-0
[20] = system: HOP-62
[21] = system: T47D
[22] = system: RXF 393
[23] = system: MDA-N
[24] = system: NCI-H226
[25] = system: ACHN
[26] = system: MDA-MB-435
[27] = system: PC-3
[28] = system: SN12C
[29] = system: Hs-578T
[30] = system: KM12
[31] = system: SK-MEL-5
[32] = system: MOLT-4
[33] = system: HCT-116
[34] = system: U-251
[35] = system: SK-MEL-2
[36] = system: UO-31
[37] = system: OVCAR-8
[38] = system: SR
[39] = system: A498
[40] = system: HCC 2998
[41] = system: M14
[42] = system: CAKI-1
[43] = system: K562
[44] = system: SNB-19
[45] = system: NCI-H522
[46] = system: UACC-62
[47] = system: MDA-MB-231
[48] = system: OVCAR-5
[49] = system: UACC-257
[50] = system: COLO 205
[51] = system: SW-620
[52] = system: DU-145
[53] = system: RPMI-8226
[54] = system: IGROV-1

In the case of `COC(CC1(/C=C/O[Si](C(C)C)(C(C)C)C(C)C)C(=O)N(COCC[Si](C)(C)C)c2ccccc21)OC` (centres undefined), the GI50 [1] is reported as 81.8 µM (inactive), the GI50 [2] is reported as 36.3 µM (inactive) and the GI50 [3] is reported as 16.6 µM (inactive). For the same molecule, the GI50 [4] was 23.1 µM (inactive), the GI50 [5] was 13.1 µM (inactive) and the GI50 [6] was 96.4 µM (inactive). The GI50 [7] was 15.1 µM (inactive), the GI50 [8] was 25.1 µM (inactive) and the GI50 [9] was 36.6 µM. For the same molecule, the GI50 [10] was 20.8 µM (inactive), the GI50 [11] was 17 µM (inactive) and the GI50 [12] was 20.8 µM (inactive). The GI50 [13] was 7.96 µM (inactive), the GI50 [14] was > 100 µM (inactive) and the GI50 [15] was 74.8 µM (inactive). The GI50 [16] was 20.8 µM (inactive), the GI50 [17] was 13.4 µM (inactive) and the GI50 [18] was 9.48 µM (inactive). For the same molecule, the GI50 [19] was 31 µM (inactive), the GI50 [20] was 66.8 µM (inactive) and the GI50 [21] was > 100 µM (inactive). The GI50 [22] was 3.9 µM (inactive), the GI50 [23] was 24.9 µM (inactive) and the GI50 [24] was > 100 µM (inactive). For the same molecule, the GI50 [25] was 26.6 µM (inactive), the GI50 [26] was 23.2 µM (inactive) and the GI50 [27] was 22.1 µM (inactive). The GI50 [28] was 45.1 µM (inactive), the GI50 [29] was > 100 µM (inactive) and the GI50 [30] was 36.1 µM (inactive). For the same molecule, the GI50 [31] was 23.1 µM (inactive), the GI50 [32] was 22.1 µM (inactive) and the GI50 [33] was 16.1 µM (inactive). For the same molecule, the GI50 [34] was 31.8 µM (inactive), the GI50 [35] was 13.3 µM (inactive) and the GI50 [36] was 76 µM (inactive). For the same molecule, the GI50 [37] was > 100 µM (inactive), the GI50 [38] was 21 µM (inactive) and the GI50 [39] was > 100 µM (inactive). The GI50 [40] was 27.9 µM (inactive), the GI50 [41] was 27.2 µM (inactive) and the GI50 [42] was 46.3 µM (inactive). The GI50 [43] was > 100 µM (inactive), the GI50 [44] was 33.7 µM (inactive) and the GI50 [45] was 6.75 µM (inactive). The GI50 [46] was 18.8 µM (inactive), the GI50 [47] was 21.1 µM (inactive) and the GI50 [48] was 37.4 µM (inactive). For the same molecule, the GI50 [49] was 25.5 µM (inactive), the GI50 [50] was 66.8 µM (inactive) and the GI50 [51] was 37.2 µM (inactive). For the same molecule, the GI50 [52] was > 100 µM (inactive), the GI50 [53] was > 100 µM (inactive) and the GI50 [54] was 24.5 µM (inactive).
